The values that follow are results of earlier work, collected in patent US20230330115A1 (priority 2022, published 2023).

“Also recorded” adds a separate entry of the source.

For series [1], the target named is CB1 receptor. To be noted: read-out: Binding Affinity CB1.
For series [2], the target named is CB1 (Homo sapiens, UniProt P21554). To be noted: read-out: Functional Activity CB1.
Series [3] addresses T1, CB2 (Homo sapiens, UniProt P34972). To be noted: read-out: Functional Activity CB2.
Series [4] deals with T1, CB2. To be noted: read-out: Binding Affinity CB2.
The subject of series [5] is mice.
Series [6] relates to rodents. To be noted: rodents administered THCB.

T1 sequence (P34972 whole entry): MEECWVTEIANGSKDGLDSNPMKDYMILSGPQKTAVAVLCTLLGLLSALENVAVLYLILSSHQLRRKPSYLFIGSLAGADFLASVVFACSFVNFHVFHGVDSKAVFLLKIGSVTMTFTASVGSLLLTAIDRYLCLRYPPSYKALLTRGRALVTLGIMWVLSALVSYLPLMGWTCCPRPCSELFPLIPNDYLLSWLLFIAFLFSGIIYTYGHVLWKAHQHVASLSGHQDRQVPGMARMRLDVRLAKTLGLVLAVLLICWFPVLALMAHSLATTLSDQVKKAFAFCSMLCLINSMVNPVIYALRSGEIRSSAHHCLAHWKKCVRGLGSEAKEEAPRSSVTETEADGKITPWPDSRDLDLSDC
CB1, sequence (P21554 whole entry): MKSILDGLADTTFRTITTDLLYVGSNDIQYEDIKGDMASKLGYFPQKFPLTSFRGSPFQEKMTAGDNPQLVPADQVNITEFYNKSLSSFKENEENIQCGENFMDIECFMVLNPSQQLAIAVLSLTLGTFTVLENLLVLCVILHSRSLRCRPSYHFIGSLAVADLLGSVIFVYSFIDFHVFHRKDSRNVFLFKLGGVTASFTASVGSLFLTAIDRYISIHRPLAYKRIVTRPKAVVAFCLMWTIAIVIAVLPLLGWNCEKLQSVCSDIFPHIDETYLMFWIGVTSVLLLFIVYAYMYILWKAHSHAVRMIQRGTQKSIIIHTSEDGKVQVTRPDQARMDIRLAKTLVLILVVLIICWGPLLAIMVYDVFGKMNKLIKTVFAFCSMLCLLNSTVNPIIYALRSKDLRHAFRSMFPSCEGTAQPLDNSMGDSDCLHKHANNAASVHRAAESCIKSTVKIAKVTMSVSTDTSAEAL

`CCCCCc1cc(O)c(C/C=C(\C)CCC=C(C)C)c(O)c1` [CBG, Cannabigerol]: in series [1], the Ki is 440 nM. Also, the EC50 in series [2] is greater than 10000 nM; in series [3] it was 1160 nM.

For the molecule `CCCCCc1cc(O)c(C/C=C(\C)CCC=C(C)C)c(O)c1C(=O)O` [CBGA, Cannabigerolic acid], the Ki in series [1] is 4530 nM; in series [4] it was greater than 10000 nM. Moreover, the EC50 is 182 ± 32 nM in series [2] and 118 ± 27 nM in series [3].

As for `CCCCCc1cc(O)c2c(c1)OC(C)(C)c1ccc(C)cc1-2` [CBN, Cannabinol], the Ki in series [1] is 368 ± 121 nM; in series [4] it was 168 ± 32 nM. Besides, the EC50 is 307 ± 39 nM in series [2] and 289 ± 38 nM in series [3].

As for Cannabichromanone D [CBCN D], the Ki was 7120 nM in series [1] and 2830 nM in series [4]. Further, the EC50 was 8 ± 0.9 nM in series [2] and 3940 nM in series [3].

As to `CCCc1cc(O)c2c(c1)OC(C)(C)[C@@H]1CCC(C)=C[C@@H]21` (single isomer, unassigned) [THCV, (—)trans-delta-9-tetrahydrocannabivarin], the Ki in series [1] is 22 ± 5 nM; in series [4], 105 ± 21 nM. Moreover, the EC50 in series [2] and in series [3] was greater than 10000 nM in each case.

Regarding `CCCCCCCc1cc(O)c2c(c1)OC(C)(C)[C@@H]1CCC(C)=C[C@@H]21` (relative stereo) [THCP, (—)trans-delta-9-tetrahydrocannabiphorol], in series [1], the Ki was 1.2 nM. Moreover, the “hypothermia, dose dependence” value in series [5] (5 mg/Kg vs 10 mg/Kg) is reported as “does appear to increase at higher doses”. Also, the “potency at CB1 relative to THC” value in series [5] (Tetrad Test in mice, even at low doses (5 mg/kg of body weight)) is “about 30 times”. The “effects in mice (Tetrad Test criteria)” value in series [5] (mice) was “hypomotility, analgesia, catalepsy and decreased rectal temperature”. In series [5] (mice, increasing dose (5 mg/Kg vs 10 mg/Kg)), the “dose dependence of the effects” value is on record as “do not appear to increase as the dose increases”.

`CCCCCc1cc2c(c(O)c1C(=O)O)[C@@H]1C=C(C)CC[C@H]1C(C)(C)O2` (relative stereo) [THCA, (—)trans-delta-9-tetrahydrocannabinolic acid]: the Ki in series [1] was 1290 nM; in series [4] it was 1650 nM. Also, the EC50 in series [2] and in series [3] was greater than 10000 nM each time.

On to `CCCCCc1cc(O)c2c(c1)OC(C)(C)[C@@H]1CCC(CO)=C[C@@H]21` [11-Hydroxy, 11-OH-delta-9-tetrahydrocannabinol], for which the Ki in series [1] was less than 200 nM. Also, the EC50 in series [2] was less than 200 nM.

As to `CCCCc1cc(O)c2c(c1)OC(C)(C)[C@@H]1CCC(C)=C[C@@H]21` (relative stereo) [THCB, (—)trans-delta-9-tetrahydrocannabibutol], the Ki in series [1] was 15 nM. In addition, in series [5] (first phase (10 mg/kg)), the “catalepsy, analgesia, hypolocomotion” value is reported as “no significant catalepsy, analgesia, or hypolocomotion; also recorded: no significant catalepsy, analgesia, or hypo locomotion” and the “hypothermic effect (decrease)” value is “less than 0.5 °C”. In series [5] (mice), the “activity type corroborated by Tetrad Test” value was “CB1 partial agonistic activity”. Besides, in series [5] (second phase (20 mg/kg)), the catalepsy and analgesia entry was “significant direct effect on catalepsy and analgesia; also recorded: very significant catalepsy and analgesia effect”; the hypolocomotion entry is “slight direct effect on hypolocomotion”; the hypothermic effect result is reported as “appears to reverse; also recorded: reversal in the second phase”. For the same molecule, in series [6], the formalin test outcome is “possible analgesic and anti-inflammatory properties”.

Regarding `C=C(C)[C@@H]1CCC(C)=C[C@H]1c1c(O)cc(CCC)cc1O` [CBDV, Cannabidivarin], the figures for the Ki in series [1] and in series [4] were 503 ± 58 nM and 3970 nM, respectively. The figures for the EC50 in series [2] and in series [3] were greater than 10000 nM and 3 ± 8 nM, respectively.
